Measurements from publication PMC12030627, “Radioiodinated Bicyclic RGD Peptide Derivatives for Enhanced Tumor Accumulation” (Pharmaceuticals, 2025).
Read-outs that look alike come from different tables or passages of the source. Starred links: 1 amine or outer side, 2 acyl side, 3 side chain; linkers in the order of their positions; H or OH if unused. Positions of bridges follow the written chain, without caps; N, C: chain ends. Non-standard residues stand in square brackets, D forms with d. Residues, ends and D or L forms follow the SMILES beside them. *: point of attachment. TBMB = c1c(C[*:1])cc(C[*:3])cc1C[*:2]; Palmitoyl = CCCCCCCCCCCCCCCC(=O)*; Benzoyl(3-I) = O=C(c1cccc(I)c1)*; 4Abz = Nc1ccc(C(=O)O)cc1

Assay: Biodistribution in U-87 MG tumor-bearing mice
Format: in vivo, BALB/c nu-nu mice
Settings: male, BALB/c nu-nu, mouse, iv, 37 kBq, total radioactivity, U-87 MG-bearing mice, mean ± SD, n = 3; for tissue uptake at 1 h / tissue uptake dose at 1 h: 1 h after i.v. administration; for tissue uptake at 2 h / tissue uptake dose at 2 h: 2 h after i.v. administration; for tissue uptake at 6 h / tissue uptake dose at 6 h: 6 h after i.v. administration; for tissue uptake at 5 min / tissue uptake dose at 5 min: 5 min after i.v. administration; for tissue uptake at 0.5 h / tissue uptake dose at 0.5 h: 30 min after i.v. administration
Description: Animal experiments were performed in compliance with institutional animal care regulations, with the study protocol approved by the Experimental Animal Committee of Osaka Medical and Pharmaceutical University (Approval Numbers: 21–76, 22–76, and 23–76). Four-week-old male BALB/c nu-nu mice (Japan SLC, Shizuoka, Japan) were housed under a 12 h light/12 h dark cycle with free access to food and water. Tumor-bearing mice were established by suspending U-87 MG cells (2 × 10^6 cells/mouse) in PBS(–) and subcutaneously injecting 100 μL of the suspension into the right hind leg. For co-implantation models, A549 cells (2 × 10^6 cells/mouse) were suspended in PBS(–) and inoculated (100 μL) into the left hind leg of the same mice already inoculated with U-87 MG cells. Mice with tumor size approximately 10 mm in diameter, 4–5 weeks after inoculation, were used for biodistribution studies. Animals in which either tumor was not viable were excluded from the experiment.
U-87 MG-bearing mice (n = 42, 8–9 weeks old; 22–27 g) were randomly assigned into groups and administered [^125I]bcRGDpal or [^125I]bcRGDiba via intravenous injection (37 kBq in 100 μL of PBS containing 0.1% Tween 80 (PBS-T80)). At 5 min, 30 min, 1 h, 2 h, 6 h, 12 h, or 24 h post-injection, the mice were euthanized (n = 3 per time point). The heart, kidneys, liver, brain, pancreas, spleen, lung, small intestine, large intestine, muscle, skin, stomach, bone, and tumors were excised. Each organ’s weight and radioactivity were measured by a NaI well-type scintillation counter, and the % ID/g was calculated. To investigate the correlation between integrin expression and radioactivity accumulation, biodistribution at 2 h after administration of [^125I]bcRGDpal or [^125I]bcRGDiba was assessed in A549 and U-87 MG co-implantation mice (n = 5) using the same procedure. Additionally, co-implantation mice were injected with [^125I]bcRGDdimer (37 kBq/100 μL PBS-T80) and euthanized at 30 min, 2 h, and 4 h post-injection (n = 4 per time point), and % ID/g values were calculated as described above. The minimum sample size needed for the biodistribution study in U-87 MG-bearing mice was calculated using G Power software version 3.1.9.7. The calculation was based on a two-tailed test, with an effect size of 3.9, a significance level (α) of 0.05, and a statistical power (1 − β) of 0.8. […] The minimum required sample size for the biodistribution study in A549 and U-87 MG co-implantation mice was also calculated to be four animals per group (effect size = 2.5, α = 0.05, 1 − β = 0.8). To guarantee objective results, the experiment was carried out in a blinded manner. Specifically, drug administration and radioactivity measurements were conducted by different investigators to eliminate potential bias.

[1] = liver, read-out: Radioactivity in liver
[2] = lung, read-out: Radioactivity in lung
[3] = muscle, read-out: Radioactivity in muscle
[4] = pancreas, read-out: Radioactivity in pancreas
[5] = small intestine, read-out: Radioactivity in small intestine
[6] = spleen, read-out: Radioactivity in spleen
[7] = stomach, read-out: Radioactivity in stomach
[8] = thyroid, read-out: Radioactivity in thyroid

Work on `CCCCCCCCCCCCCCCC(=O)N[C@@H](CCCCNC(=O)c1cccc(I)c1)C(=O)N1CCC[C@H]1C(=O)N1CCC[C@H]1C(=O)N1CCC[C@H]1C(=O)N[C@@H](CO)C(=O)NCC(=O)Nc1ccc(C(=O)N[C@@H](CO)C(=O)NCC(=O)N[C@H]2CSCc3cc4cc(c3)CSC[C@@H](NC(=O)[C@H](CCC(N)=O)NC(=O)[C@@H]3CCCN3C(=O)[C@H](Cc3c[nH]cn3)NC2=O)C(=O)N[C@@H](CCCNC(=N)N)C(=O)NCC(=O)N[C@@H](CC(=O)O)C(=O)N[C@@H](C(N)=O)CSC4)cc1` [[^125I]bcRGDpal] (Palmitoyl-K(Benzoyl(3-I))PPPSG[4Abz]SGCHPQ[dC]RGD[dC]-NH2; linker 10-14-18 via TBMB) yielded a tissue uptake at 1 h [1] of 15.8 ± 0.9 %ID/g, a tissue uptake at 2 h [1] of 12.3 ± 0.3 %ID/g and a tissue uptake at 6 h [1] of 6 ± 0.2 %ID/g. For the same compound, the tissue uptake at 12 h (liver, 12 h after i.v. administration, read-out: Radioactivity in liver) was 1.9 ± 0.2 %ID/g, the tissue uptake at 24 h (liver, 24 h after i.v. administration, read-out: Radioactivity in liver) was 0.5 %ID/g and the tissue uptake at 5 min [2] was 11.8 ± 1.3 %ID/g. For the same compound, the tissue uptake at 0.5 h [2] was 11.2 ± 1 %ID/g, the tissue uptake at 1 h [2] was 9.6 ± 1.3 %ID/g and the tissue uptake at 2 h [2] was 7.8 ± 1 %ID/g. The tissue uptake at 6 h [2] was 4.4 ± 0.5 %ID/g, the tissue uptake at 12 h (lung, 12 h after i.v. administration, read-out: Radioactivity in lung) was 2.2 ± 0.3 %ID/g and the tissue uptake at 24 h (lung, 24 h after i.v. administration, read-out: Radioactivity in lung) was 0.6 ± 0.1 %ID/g. For the same compound, the tissue uptake at 5 min [3] was 1.4 ± 0.3 %ID/g, the tissue uptake at 0.5 h [3] was 1.6 ± 0.2 %ID/g and the tissue uptake at 1 h [3] was 1.4 ± 0.2 %ID/g. For the same compound, the tissue uptake at 2 h [3] was 1.1 ± 0.1 %ID/g, the tissue uptake at 6 h [3] was 0.6 ± 0.1 %ID/g and the tissue uptake at 12 h (muscle, 12 h after i.v. administration, read-out: Radioactivity in muscle) was 0.3 %ID/g. For the same compound, the tissue uptake at 24 h (muscle, 24 h after i.v. administration, read-out: Radioactivity in muscle) was 0.1 %ID/g, the tissue uptake at 5 min [4] was 2.8 ± 0.2 %ID/g and the tissue uptake at 0.5 h [4] was 2.5 ± 0.3 %ID/g. It also gave a tissue uptake at 1 h [4] of 1.9 ± 0.1 %ID/g, a tissue uptake at 2 h [4] of 1.6 ± 0.1 %ID/g and a tissue uptake at 6 h [4] of 1.2 ± 0.3 %ID/g. For the same compound, the tissue uptake at 12 h (pancreas, 12 h after i.v. administration, read-out: Radioactivity in pancreas) was 0.4 %ID/g, the tissue uptake at 24 h (pancreas, 24 h after i.v. administration, read-out: Radioactivity in pancreas) was 0.1 %ID/g and the tissue uptake at 5 min [5] was 2.3 ± 0.2 %ID/g. For the same compound, the tissue uptake at 0.5 h [5] was 4.5 ± 0.6 %ID/g, the tissue uptake at 1 h [5] was 7 ± 0.3 %ID/g and the tissue uptake at 2 h [5] was 9.3 ± 0.9 %ID/g. The tissue uptake at 6 h [5] was 4 ± 0.2 %ID/g, the tissue uptake at 12 h (small intestine, 12 h after i.v. administration, read-out: Radioactivity in small intestine) was 1.9 ± 0.5 %ID/g and the tissue uptake at 24 h (small intestine, 24 h after i.v. administration, read-out: Radioactivity in small intestine) was 0.3 %ID/g. It also gave a tissue uptake at 5 min [6] of 5.1 ± 0.4 %ID/g, a tissue uptake at 0.5 h [6] of 5.9 ± 0.8 %ID/g and a tissue uptake at 1 h [6] of 4.6 ± 0.6 %ID/g. For the same compound, the tissue uptake at 2 h [6] was 3.7 ± 0.1 %ID/g, the tissue uptake at 6 h [6] was 1.9 ± 0.2 %ID/g and the tissue uptake at 12 h (spleen, 12 h after i.v. administration, read-out: Radioactivity in spleen) was 0.8 ± 0.1 %ID/g. The tissue uptake at 24 h (spleen, 24 h after i.v. administration, read-out: Radioactivity in spleen) was 0.2 %ID/g, the tissue uptake dose at 5 min [7] was 0.5 ± 0.1 %ID and the tissue uptake dose at 0.5 h [7] was 0.6 ± 0.1 %ID. The tissue uptake dose at 1 h [7] was 0.7 ± 0.1 %ID, the tissue uptake dose at 2 h [7] was 0.8 ± 0.1 %ID and the tissue uptake dose at 6 h [7] was 0.4 %ID. For the same compound, the tissue uptake dose at 12 h (stomach, 12 h after i.v. administration) was 0.4 ± 0.3 %ID, the tissue uptake dose at 24 h (stomach, 24 h after i.v. administration) was 0.1 ± 0.1 %ID and the tissue uptake dose at 5 min [8] was 0.1 %ID. For the same compound, the tissue uptake dose at 0.5 h [8] was 0.1 ± 0.1 %ID, the tissue uptake dose at 1 h [8] was 0.1 ± 0.1 %ID and the tissue uptake dose at 2 h [8] was 0.1 ± 0.1 %ID. It also gave a tissue uptake dose at 6 h [8] of 0.1 %ID.
